According to publication doi:10.1101/2025.05.09.653172, “Alternative Splicing in TRPA1 Drives Sensory Adaptation to Electrophiles in Drosophilids” (bioRxiv, 2025):

Columns and labels:
Experiment in all cases: two-electrode voltage clamp, Xenopus oocytes, heat-normalized AITC-evoked current
[1] = biological target: T1, DmTRPA1-D (Drosophila melanogaster, UniProt H0USS9); format: cell-based; settings: read-out: TRPA1-DL / DmTRPA1-D
T1 construct: gene TrpA1; full CDS of splice isoform D (cDNA gift from Marco Gallio lab) in pOX(+), cRNA-injected Xenopus laevis oocytes
T1 sequence (H0USS9 1-1231): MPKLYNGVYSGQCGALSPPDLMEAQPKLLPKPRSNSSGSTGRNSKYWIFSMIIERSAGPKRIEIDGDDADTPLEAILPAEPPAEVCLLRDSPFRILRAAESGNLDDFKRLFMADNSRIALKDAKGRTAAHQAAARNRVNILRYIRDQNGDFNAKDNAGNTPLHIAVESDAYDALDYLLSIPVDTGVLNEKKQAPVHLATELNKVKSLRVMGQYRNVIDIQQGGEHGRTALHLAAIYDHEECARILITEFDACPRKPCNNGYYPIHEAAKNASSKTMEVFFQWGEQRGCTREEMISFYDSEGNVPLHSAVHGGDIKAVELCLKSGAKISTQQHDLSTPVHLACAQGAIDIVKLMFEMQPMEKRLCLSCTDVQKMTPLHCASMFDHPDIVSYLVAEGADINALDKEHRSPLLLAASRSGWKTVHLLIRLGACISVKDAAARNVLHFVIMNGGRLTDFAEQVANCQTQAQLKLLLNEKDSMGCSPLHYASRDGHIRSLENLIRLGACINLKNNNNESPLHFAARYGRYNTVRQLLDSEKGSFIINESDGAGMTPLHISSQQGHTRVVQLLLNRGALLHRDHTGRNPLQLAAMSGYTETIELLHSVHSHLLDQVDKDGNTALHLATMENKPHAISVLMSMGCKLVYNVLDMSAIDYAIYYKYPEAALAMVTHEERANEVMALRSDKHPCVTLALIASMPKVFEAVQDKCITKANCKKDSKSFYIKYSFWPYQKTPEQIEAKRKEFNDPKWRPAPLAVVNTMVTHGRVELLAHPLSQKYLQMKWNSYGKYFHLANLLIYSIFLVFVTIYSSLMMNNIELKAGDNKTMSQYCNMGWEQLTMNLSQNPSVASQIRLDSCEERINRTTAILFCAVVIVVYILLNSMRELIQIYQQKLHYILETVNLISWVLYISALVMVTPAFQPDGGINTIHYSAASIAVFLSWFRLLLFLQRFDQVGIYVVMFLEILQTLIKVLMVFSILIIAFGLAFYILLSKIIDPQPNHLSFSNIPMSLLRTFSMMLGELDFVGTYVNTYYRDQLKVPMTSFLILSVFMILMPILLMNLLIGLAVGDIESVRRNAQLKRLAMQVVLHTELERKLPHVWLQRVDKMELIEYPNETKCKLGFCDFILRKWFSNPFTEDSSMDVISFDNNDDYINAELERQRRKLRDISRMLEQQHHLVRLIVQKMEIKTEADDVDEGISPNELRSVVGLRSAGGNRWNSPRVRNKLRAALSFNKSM
Source text: two-electrode voltage clamp, Xenopus oocytes, heat-normalized AITC-evoked current on DmTRPA1-D

[2] = tested on: T2, SpTRPA1-CL; format: cell-based, Scaptomyza pallida; settings: agonist (electrophile); ND96 pH 7.4, -60 mV; after prior heat stimulus (>40 °C); read-out: TRPA1-CL / SpTRPA1-CL
T2 construct: gene TrpA1; full CDS of splice isoform CL (cDNA from adult labella) in pOX(+), cRNA-injected Xenopus laevis oocytes
Source text: two-electrode voltage clamp, Xenopus oocytes, heat-normalized AITC-evoked current on SpTRPA1-CL

[3] = tested on: T3, SfTRPA1-CL; format: cell-based, Scaptomyza flava; settings: agonist (electrophile); ND96 pH 7.4, -60 mV; after prior heat stimulus (>40 °C); read-out: TRPA1-CL / SfTRPA1-CL
T3 construct: gene TrpA1; full CDS of splice isoform CL (artificial synthesis, Genscript) in pOX(+), cRNA-injected Xenopus laevis oocytes
Source text: two-electrode voltage clamp, Xenopus oocytes, heat-normalized AITC-evoked current on SfTRPA1-CL

[4] = biological target: T4, DmTRPA1-C (Drosophila melanogaster, UniProt G8IQ59); format: cell-based; settings: read-out: TRPA1-CL / DmTRPA1-C
T4 construct: gene TrpA1; full CDS of splice isoform C (cDNA from third-instar larva whole body) in pOX(+), cRNA-injected Xenopus laevis oocytes
T4 sequence (G8IQ59 1-1232): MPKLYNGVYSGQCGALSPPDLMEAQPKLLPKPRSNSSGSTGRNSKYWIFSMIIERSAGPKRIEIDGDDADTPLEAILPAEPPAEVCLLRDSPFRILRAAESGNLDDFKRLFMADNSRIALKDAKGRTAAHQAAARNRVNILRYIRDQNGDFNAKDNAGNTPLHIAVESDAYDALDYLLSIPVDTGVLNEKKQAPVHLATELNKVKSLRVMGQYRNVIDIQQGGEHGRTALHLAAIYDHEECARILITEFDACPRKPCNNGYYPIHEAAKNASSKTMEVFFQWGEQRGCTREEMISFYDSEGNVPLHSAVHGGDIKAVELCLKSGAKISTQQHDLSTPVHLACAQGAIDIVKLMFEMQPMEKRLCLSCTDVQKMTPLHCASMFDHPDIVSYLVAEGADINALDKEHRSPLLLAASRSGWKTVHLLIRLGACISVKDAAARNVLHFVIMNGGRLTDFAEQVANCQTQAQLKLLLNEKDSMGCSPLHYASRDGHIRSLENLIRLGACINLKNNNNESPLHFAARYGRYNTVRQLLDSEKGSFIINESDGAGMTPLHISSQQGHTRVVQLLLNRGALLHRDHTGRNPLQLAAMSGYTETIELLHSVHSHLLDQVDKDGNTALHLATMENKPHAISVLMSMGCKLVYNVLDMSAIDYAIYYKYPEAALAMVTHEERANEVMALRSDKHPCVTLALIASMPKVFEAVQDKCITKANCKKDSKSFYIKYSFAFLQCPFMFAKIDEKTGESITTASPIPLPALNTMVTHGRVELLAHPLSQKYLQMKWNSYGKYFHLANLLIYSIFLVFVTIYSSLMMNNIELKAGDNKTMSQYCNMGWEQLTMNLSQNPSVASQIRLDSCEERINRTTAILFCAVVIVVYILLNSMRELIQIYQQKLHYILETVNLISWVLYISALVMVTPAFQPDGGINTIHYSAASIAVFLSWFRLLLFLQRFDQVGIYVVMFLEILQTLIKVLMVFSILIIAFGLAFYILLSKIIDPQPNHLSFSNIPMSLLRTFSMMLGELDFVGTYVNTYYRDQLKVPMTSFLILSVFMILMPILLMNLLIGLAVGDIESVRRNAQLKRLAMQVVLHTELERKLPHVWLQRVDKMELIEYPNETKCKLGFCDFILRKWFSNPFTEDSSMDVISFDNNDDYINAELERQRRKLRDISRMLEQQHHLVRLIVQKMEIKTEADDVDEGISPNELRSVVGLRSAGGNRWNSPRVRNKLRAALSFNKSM
Source text: two-electrode voltage clamp, Xenopus oocytes, heat-normalized AITC-evoked current on DmTRPA1-C

[5] = tested on: T5, SfTRPA1-DL; format: cell-based, Scaptomyza flava; settings: agonist (electrophile); ND96 pH 7.4, -60 mV; after prior heat stimulus (>40 °C); read-out: TRPA1-DL / SfTRPA1-DL
T5 construct: gene TrpA1; full CDS of splice isoform DL (artificial synthesis, Genscript) in pOX(+), cRNA-injected Xenopus laevis oocytes
Source text: two-electrode voltage clamp, Xenopus oocytes, heat-normalized AITC-evoked current on SfTRPA1-DL

[6] = tested on: T6, SpTRPA1-DL; format: cell-based, Scaptomyza pallida; settings: agonist (electrophile); ND96 pH 7.4, -60 mV; after prior heat stimulus (>40 °C); read-out: TRPA1-DL / SpTRPA1-DL
T6 construct: gene TrpA1; full CDS of splice isoform DL (cDNA from adult tarsi) in pOX(+), cRNA-injected Xenopus laevis oocytes
Source text: two-electrode voltage clamp, Xenopus oocytes, heat-normalized AITC-evoked current on SpTRPA1-DL

Work on `C=CCN=C=S` [allyl isothiocyanate] yielded an EC50 [1] of 341 ± 92 µM, an EC50 [2] of 29 ± 15 µM and an EC50 [3] of 65 ± 55 µM. For the same molecule, the EC50 [4] was 8.6 ± 4.3 µM, the EC50 [5] was 316 ± 31 µM and the EC50 [6] was 103 ± 15 µM.
